Data as given in PubChem BioAssay AID250 (DTP/NCI, 2004).
“And” between values parts separate entries of the source, which are not always exact repeats. Identical values can stand only once. Toxic doses and inconclusive results are not listed.

Test system: BDF1 mice, L1210 leukemia sc, survival T/C
Experiment: NCI In Vivo Anticancer Drug Screen. Data for tumor model L1210 Leukemia (subcutaneous) in B6D2F1 (BDF1) mice
Details: endpoint: median survival time, higher = longer survival
Outline: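 Read-out: T/C ratio, i.e. survival or tumor size in treated mice over that in vehicle-treated controls, from mice bearing transplantable tumors.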

With `O=C(Nc1ccc(C2=NCCN2)cc1)c1ccc(C(=O)Nc2ccc(C3=NCCN3)cc2)c(Cl)c1` the T/C (dose: 24.0 mg/kg/injection, schedule: Q01DX Z (sc), vehicle: water) was 200 % of control, the T/C (dose: 28.0 mg/kg/injection, schedule: Q01DX001 (ip), vehicle: water) was 100 % of control and the T/C (dose: 28.0 mg/kg/injection, schedule: Q01DX Z (ip), vehicle: water) was 205 % of control. The T/C (dose: 28.0 mg/kg/injection, schedule: Q01DX Z (sc), vehicle: water) was 190 % of control, the T/C (dose: 39.0 mg/kg/injection, schedule: Q01DX Z (sc), vehicle: other) was 200 % of control and the T/C (dose: 39.0 mg/kg/injection, schedule: Q01DX Z (sc), vehicle: saline) was 180 % of control and 185 % of control and 195 % of control. For the same compound, the T/C (dose: 39.0 mg/kg/injection, schedule: Q01DX Z (sc), vehicle: water) was 210 % of control and 195 % of control, the T/C (dose: 39.0 mg/kg/injection, schedule: Q## X Z (sc), vehicle: saline) was 170 % of control and the T/C (dose: 40.0 mg/kg/injection, schedule: Q01DX001 (sc), vehicle: methylcellulose (MC)) was 111 % of control. For the same compound, the T/C (dose: 40.0 mg/kg/injection, schedule: Q01DX Z (sc), vehicle: methylcellulose (MC)) was 177 % of control, the T/C (dose: 40.0 mg/kg/injection, schedule: Q01DX Z (sc), vehicle: water) was 227 % of control and the T/C (dose: 47.0 mg/kg/injection, schedule: Q01DX001 (ip), vehicle: water) was 100 % of control. The T/C (dose: 47.0 mg/kg/injection, schedule: Q01DX Z (sc), vehicle: water) was 200 % of control, the T/C (dose: 48.0 mg/kg/injection, schedule: Q01DX Z (sc), vehicle: water) was 181 % of control and the T/C (dose: 65.0 mg/kg/injection, schedule: Q01DX Z (sc), vehicle: other) was 180 % of control. The T/C (dose: 65.0 mg/kg/injection, schedule: Q01DX Z (sc), vehicle: saline) was 155 % of control and 163 % of control and 166 % of control, the T/C (dose: 65.0 mg/kg/injection, schedule: Q01DX Z (sc), vehicle: water) was 155 % of control and 185 % of control and 170 % of control and the T/C (dose: 65.0 mg/kg/injection, schedule: Q## X Z (sc), vehicle: saline) was 200 % of control. The T/C (dose: 78.0 mg/kg/injection, schedule: Q01DX001 (ip), vehicle: water) was 100 % of control, the T/C (dose: 78.0 mg/kg/injection, schedule: Q01DX001 (sc), vehicle: water) was 100 % of control and the T/C (dose: 78.0 mg/kg/injection, schedule: Q01DX Z (sc), vehicle: water) was 170 % of control. For the same compound, the T/C (dose: 80.0 mg/kg/injection, schedule: Q01DX001 (sc), vehicle: methylcellulose (MC)) was 116 % of control, the T/C (dose: 80.0 mg/kg/injection, schedule: Q01DX Z (sc), vehicle: methylcellulose (MC)) was 111 % of control and the T/C (dose: 80.0 mg/kg/injection, schedule: Q01DX Z (sc), vehicle: water) was 155 % of control. For the same compound, the T/C (dose: 108.0 mg/kg/injection, schedule: Q01DX001 (sc), vehicle: saline) was 170 % of control, the T/C (dose: 108.0 mg/kg/injection, schedule: Q01DX Z (sc), vehicle: saline) was 154 % of control and the T/C (dose: 108.0 mg/kg/injection, schedule: Q02DX Z (sc), vehicle: saline) was 200 % of control. For the same compound, the T/C (dose: 130.0 mg/kg/injection, schedule: Q01DX001 (ip), vehicle: water) was 105 % of control, the T/C (dose: 130.0 mg/kg/injection, schedule: Q01DX001 (sc), vehicle: water) was 110 % of control and the T/C (dose: 160.0 mg/kg/injection, schedule: Q01DX001 (sc), vehicle: methylcellulose (MC)) was 166 % of control. The T/C (dose: 160.0 mg/kg/injection, schedule: Q01DX001 (sc), vehicle: water) was 161 % of control, the T/C (dose: 180.0 mg/kg/injection, schedule: Q01DX001 (sc), vehicle: saline) was 190 % of control and the T/C (dose: 180.0 mg/kg/injection, schedule: Q01DX Z (sc), vehicle: other) was 115 % of control. The T/C (dose: 180.0 mg/kg/injection, schedule: Q02DX Z (sc), vehicle: saline) was 180 % of control, the T/C (dose: 300.0 mg/kg/injection, schedule: Q01DX Z (sc), vehicle: other) was 90 % of control and the T/C (dose: 300.0 mg/kg/injection, schedule: Q01DX Z (sc), vehicle: water) was 105 % of control. For the same compound, the T/C (dose: 300.0 mg/kg/injection, schedule: Q02DX Z (sc), vehicle: saline) was 170 % of control, the T/C (dose: 300.0 mg/kg/injection, schedule: Q## X Z (sc), vehicle: saline) was 205 % of control and the T/C (dose: 320.0 mg/kg/injection, schedule: Q01DX001 (sc), vehicle: water) was 222 % of control. For the same compound, the T/C (dose: 360.0 mg/kg/injection, schedule: Q01DX001 (sc), vehicle: water) was 155 % of control, the T/C (dose: 500.0 mg/kg/injection, schedule: Q## X Z (sc), vehicle: saline) was 200 % of control and the T/C (dose: 600.0 mg/kg/injection, schedule: Q01DX001 (sc), vehicle: water) was 150 % of control.
